Test results: patent US10363239B2, “Method for inhibiting growth of cancer cells” (Pain Therapeutics, Inc., priority 2013, dated 2019)

Molecular target: FLNA pentapeptide of SEQ ID NO: 1 (Bn-VAKGL) (Homo sapiens, UniProt P21333)
Assay: FITC-NLX-based FLNA screening assay (inhibition of FITC-naloxone binding to Bn-VAKGL on streptavidin plates)
Conditions: FLNA-binding compound 0.01 μM; 10 nM FITC-NLX; read-out: Percent Binding Inhibition

Row | Compound | inhibition at 0.01 µM [%]
1 | CC(=O)c1ccc(S(=O)(=O)N2CCOC23CCNCC3)cc1 [Compound C0046] | 30.8
2 | CC(=O)c1ccc(S(=O)(=O)N2CCOC23CCN(CC(=O)O)CC3)cc1 [Compound C0100M] | 52.2
3 | CC1CCC(C(C)C)C(OCC(O)CN2CCCN(C)CC2)C1 (stereo not drawn) [Compound A0010] | 36
4 | CC1CCC(C(C)C)C(OCC(O)CN2CCN(CCN3CCCCC3)CC2)C1 (stereo not drawn) [Compound A0031] | 40.8

Same assay, conditions: FLNA-binding compound 0.1 μM; 10 nM FITC-NLX; read-out: Percent Binding Inhibition

Row | Compound | inhibition at 0.1 µM [%]
5 | CC(=O)c1ccc(S(=O)(=O)N2CCOC23CCNCC3)cc1 [Compound C0046] | 35.7
6 | CC(=O)c1ccc(S(=O)(=O)N2CCOC23CCN(CC(=O)O)CC3)cc1 [Compound C0100M] | 58.2
7 | CC1CCC(C(C)C)C(OCC(O)CN2CCCN(C)CC2)C1 (stereo not drawn) [Compound A0010] | 36.5
8 | CC1CCC(C(C)C)C(OCC(O)CN2CCN(CCN3CCCCC3)CC2)C1 (stereo not drawn) [Compound A0031] | 47.6

Same assay, conditions: FLNA-binding compound 1 μM; 10 nM FITC-NLX; read-out: Percent Binding Inhibition

Row | Compound | inhibition at 1 µM [%]
9 | CC(=O)c1ccc(S(=O)(=O)N2CCOC23CCNCC3)cc1 [Compound C0046] | 42.2
10 | CC(=O)c1ccc(S(=O)(=O)N2CCOC23CCN(CC(=O)O)CC3)cc1 [Compound C0100M] | 64.5
11 | CC1CCC(C(C)C)C(OCC(O)CN2CCCN(C)CC2)C1 (stereo not drawn) [Compound A0010] | 39
12 | CC1CCC(C(C)C)C(OCC(O)CN2CCN(CCN3CCCCC3)CC2)C1 (stereo not drawn) [Compound A0031] | 52.9

Same assay, conditions: read-out: Percent Binding Inhibition, FLNA-binding compound 0.01 μM; 10 nM FITC-NLX

Row | Compound | inhibition at 0.01 µM [%]
13 | O=C1CN(Cc2ccccc2)C2(CCN(CC3CC3)CC2)N1 [Compound C0125M] | 54.2
14 | COc1c2c(cc3c1C(CC(=O)c1ccc(N4CCOCC4)cc1)[N+](C)(C)CC3)OCO2 (stereo not drawn) [Compound B0004] | 38.9
15 | COc1cc(C(=O)CC2c3c(cc4c(c3OC)OCO4)CC[N+]2(C)C)cc(OC)c1OC (stereo not drawn) [Compound B0037] | 47.4

Same assay, conditions: read-out: Percent Binding Inhibition, FLNA-binding compound 0.1 μM; 10 nM FITC-NLX

Row | Compound | inhibition at 0.1 µM [%]
16 | O=C1CN(Cc2ccccc2)C2(CCN(CC3CC3)CC2)N1 [Compound C0125M] | 59.7
17 | COc1c2c(cc3c1C(CC(=O)c1ccc(N4CCOCC4)cc1)[N+](C)(C)CC3)OCO2 (stereo not drawn) [Compound B0004] | 50
18 | COc1cc(C(=O)CC2c3c(cc4c(c3OC)OCO4)CC[N+]2(C)C)cc(OC)c1OC (stereo not drawn) [Compound B0037] | 53

Same assay, conditions: read-out: Percent Binding Inhibition, FLNA-binding compound 1 μM; 10 nM FITC-NLX

Row | Compound | inhibition at 1 µM [%]
19 | O=C1CN(Cc2ccccc2)C2(CCN(CC3CC3)CC2)N1 [Compound C0125M] | 63.3
20 | COc1c2c(cc3c1C(CC(=O)c1ccc(N4CCOCC4)cc1)[N+](C)(C)CC3)OCO2 (stereo not drawn) [Compound B0004] | 54.8
21 | COc1cc(C(=O)CC2c3c(cc4c(c3OC)OCO4)CC[N+]2(C)C)cc(OC)c1OC (stereo not drawn) [Compound B0037] | 52.4

Test system: mu opiate receptor (MOR)
Assay: MOR agonist activity using [35S]GTPγS binding assay in striatal membranes
Assay type: biochemical
Conditions: 0.1 μM compound
Procedure, shortened: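 Striatal membranes (200 μg) were preincubated 5 min at 30 °C in HEPES pH 7.5 with 100 mM NaCl, 1 mM MgCl2 and 0.5 nM [35S]GTPγS, then 5 min more with 0.1–10 μM compound. Gαo was immunoprecipitated and bound radioactivity counted by scintillation.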

Row | Compound | MOR agonist activity ([35S]GTPγS binding), FLNA-Binding Compound as Agonist 0.1 μM [%]
22 | CC1CCC(C(C)C)C(OCC(O)CN2CCCN(C)CC2)C1 (stereo not drawn) [Compound A0010] | 277.2
23 | CC1CCC(C(C)C)C(OCC(O)CN2CCN(CCN3CCCCC3)CC2)C1 (stereo not drawn) [Compound A0031] | 178.2

Same assay, conditions: 0.1 μM compound relative to DAMGO

Row | Compound | % DAMGO (0.1 μM) [%]
24 | CC1CCC(C(C)C)C(OCC(O)CN2CCCN(C)CC2)C1 (stereo not drawn) [Compound A0010] | 161.9
25 | CC1CCC(C(C)C)C(OCC(O)CN2CCN(CCN3CCCCC3)CC2)C1 (stereo not drawn) [Compound A0031] | 100.9

Same assay, conditions: 1 μM compound

Row | Compound | MOR agonist activity ([35S]GTPγS binding), FLNA-Binding Compound as Agonist 1 μM [%]
26 | CC1CCC(C(C)C)C(OCC(O)CN2CCCN(C)CC2)C1 (stereo not drawn) [Compound A0010] | 319.0
27 | CC1CCC(C(C)C)C(OCC(O)CN2CCN(CCN3CCCCC3)CC2)C1 (stereo not drawn) [Compound A0031] | 297.0

Same assay, conditions: 1 μM compound + 1 μM β-funaltrexamine

Row | Compound | MOR agonist activity ([35S]GTPγS binding), FLNA-Binding Compound as Agonist 1 μM + BFNA [%]
28 | CC1CCC(C(C)C)C(OCC(O)CN2CCCN(C)CC2)C1 (stereo not drawn) [Compound A0010] | 190.3
29 | CC1CCC(C(C)C)C(OCC(O)CN2CCN(CCN3CCCCC3)CC2)C1 (stereo not drawn) [Compound A0031] | 150.9

Same assay, conditions: 1 μM compound + BFNA relative to DAMGO + BFNA

Row | Compound | % DAMGO + BFNA [%]
30 | CC1CCC(C(C)C)C(OCC(O)CN2CCCN(C)CC2)C1 (stereo not drawn) [Compound A0010] | 365.3
31 | CC1CCC(C(C)C)C(OCC(O)CN2CCN(CCN3CCCCC3)CC2)C1 (stereo not drawn) [Compound A0031] | 573.8

Same assay, conditions: 1 μM compound relative to DAMGO

Row | Compound | % DAMGO (1 μM) [%]
32 | CC1CCC(C(C)C)C(OCC(O)CN2CCCN(C)CC2)C1 (stereo not drawn) [Compound A0010] | 119.5
33 | CC1CCC(C(C)C)C(OCC(O)CN2CCN(CCN3CCCCC3)CC2)C1 (stereo not drawn) [Compound A0031] | 116.8

Same assay, conditions: Series B; 0.1 μM compound, relative to DAMGO

Row | Compound | % DAMGO (0.1 μM) [%]
34 | COc1c2c(cc3c1C(CC(=O)c1ccc(N4CCOCC4)cc1)[N+](C)(C)CC3)OCO2 (stereo not drawn) [Compound B0004] | 102.8
35 | COc1cc(C(=O)CC2c3c(cc4c(c3OC)OCO4)CC[N+]2(C)C)cc(OC)c1OC (stereo not drawn) [Compound B0037] | 76.5

Same assay, conditions: Series B; 0.1 μM compound; [35S]GTPγS binding to Gαo, striatal membranes

Row | Compound | MOR agonist activity, percent [35S]GTPγS binding at the stated compound concentration [%]
36 | COc1c2c(cc3c1C(CC(=O)c1ccc(N4CCOCC4)cc1)[N+](C)(C)CC3)OCO2 (stereo not drawn) [Compound B0004] | 170.3
37 | COc1cc(C(=O)CC2c3c(cc4c(c3OC)OCO4)CC[N+]2(C)C)cc(OC)c1OC (stereo not drawn) [Compound B0037] | 119.8

Same assay, conditions: Series B; 1 μM compound + 1 μM β-FNA

Row | Compound | MOR agonist activity, percent [35S]GTPγS binding at the stated compound concentration [%]
38 | COc1c2c(cc3c1C(CC(=O)c1ccc(N4CCOCC4)cc1)[N+](C)(C)CC3)OCO2 (stereo not drawn) [Compound B0004] | 72.0
39 | COc1cc(C(=O)CC2c3c(cc4c(c3OC)OCO4)CC[N+]2(C)C)cc(OC)c1OC (stereo not drawn) [Compound B0037] | 106.2

Same assay, conditions: Series B; 1 μM compound + β-FNA, relative to DAMGO + BFNA

Row | Compound | % DAMGO + BFNA [%]
40 | COc1c2c(cc3c1C(CC(=O)c1ccc(N4CCOCC4)cc1)[N+](C)(C)CC3)OCO2 (stereo not drawn) [Compound B0004] | 110.8
41 | COc1cc(C(=O)CC2c3c(cc4c(c3OC)OCO4)CC[N+]2(C)C)cc(OC)c1OC (stereo not drawn) [Compound B0037] | 325.8

Same assay, conditions: Series B; 1 μM compound, relative to DAMGO

Row | Compound | % DAMGO (1 μM) [%]
42 | COc1c2c(cc3c1C(CC(=O)c1ccc(N4CCOCC4)cc1)[N+](C)(C)CC3)OCO2 (stereo not drawn) [Compound B0004] | 85.8
43 | COc1cc(C(=O)CC2c3c(cc4c(c3OC)OCO4)CC[N+]2(C)C)cc(OC)c1OC (stereo not drawn) [Compound B0037] | 80.4

Same assay, conditions: Series B; 1 μM compound; [35S]GTPγS binding to Gαo, striatal membranes

Row | Compound | MOR agonist activity, percent [35S]GTPγS binding at the stated compound concentration [%]
44 | COc1c2c(cc3c1C(CC(=O)c1ccc(N4CCOCC4)cc1)[N+](C)(C)CC3)OCO2 (stereo not drawn) [Compound B0004] | 231.7
45 | COc1cc(C(=O)CC2c3c(cc4c(c3OC)OCO4)CC[N+]2(C)C)cc(OC)c1OC (stereo not drawn) [Compound B0037] | 186.0

Same assay, conditions: Series C-2; 0.1 μM compound, relative to DAMGO

Row | Compound | % DAMGO (0.1 μM) [%]
46 | O=C1CN(Cc2ccccc2)C2(CCN(CC3CC3)CC2)N1 [Compound C0125M] | 89.1
47 | CC(=O)c1ccc(S(=O)(=O)N2CCOC23CCNCC3)cc1 [Compound C0046] | 197.4
48 | CC(=O)c1ccc(S(=O)(=O)N2CCOC23CCN(CC(=O)O)CC3)cc1 [Compound C0100M] | 103.6

Same assay, conditions: Series C-2; 0.1 μM compound; [35S]GTPγS binding to Gαo, striatal membranes

Row | Compound | MOR agonist activity, percent [35S]GTPγS binding at the stated compound concentration [%]
49 | O=C1CN(Cc2ccccc2)C2(CCN(CC3CC3)CC2)N1 [Compound C0125M] | 168.6
50 | CC(=O)c1ccc(S(=O)(=O)N2CCOC23CCNCC3)cc1 [Compound C0046] | 286.2
51 | CC(=O)c1ccc(S(=O)(=O)N2CCOC23CCN(CC(=O)O)CC3)cc1 [Compound C0100M] | 173.6

Same assay, conditions: Series C-2; 1 μM compound + 1 μM β-FNA

Row | Compound | MOR agonist activity, percent [35S]GTPγS binding at the stated compound concentration [%]
52 | O=C1CN(Cc2ccccc2)C2(CCN(CC3CC3)CC2)N1 [Compound C0125M] | 159.7
53 | CC(=O)c1ccc(S(=O)(=O)N2CCOC23CCNCC3)cc1 [Compound C0046] | 156.8
54 | CC(=O)c1ccc(S(=O)(=O)N2CCOC23CCN(CC(=O)O)CC3)cc1 [Compound C0100M] | 195.6

Same assay, conditions: Series C-2; 1 μM compound + β-FNA, relative to DAMGO + BFNA

Row | Compound | % DAMGO + BFNA [%]
55 | O=C1CN(Cc2ccccc2)C2(CCN(CC3CC3)CC2)N1 [Compound C0125M] | 329.3
56 | CC(=O)c1ccc(S(=O)(=O)N2CCOC23CCNCC3)cc1 [Compound C0046] | 356.4
57 | CC(=O)c1ccc(S(=O)(=O)N2CCOC23CCN(CC(=O)O)CC3)cc1 [Compound C0100M] | 411.8

Same assay, conditions: Series C-2; 1 μM compound, relative to DAMGO

Row | Compound | % DAMGO (1 μM) [%]
58 | O=C1CN(Cc2ccccc2)C2(CCN(CC3CC3)CC2)N1 [Compound C0125M] | 78.6
59 | CC(=O)c1ccc(S(=O)(=O)N2CCOC23CCNCC3)cc1 [Compound C0046] | 211.5
60 | CC(=O)c1ccc(S(=O)(=O)N2CCOC23CCN(CC(=O)O)CC3)cc1 [Compound C0100M] | 110.6

Same assay, conditions: Series C-2; 1 μM compound; [35S]GTPγS binding to Gαo, striatal membranes

Row | Compound | MOR agonist activity, percent [35S]GTPγS binding at the stated compound concentration [%]
61 | O=C1CN(Cc2ccccc2)C2(CCN(CC3CC3)CC2)N1 [Compound C0125M] | 195.2
62 | CC(=O)c1ccc(S(=O)(=O)N2CCOC23CCNCC3)cc1 [Compound C0046] | 492.9
63 | CC(=O)c1ccc(S(=O)(=O)N2CCOC23CCN(CC(=O)O)CC3)cc1 [Compound C0100M] | 245.9
